Source: patent US20030158118A1, “Combination of cimetidine and cysteine derivatives for treating cancer” (priority 2001, published 2003)

Test system: CT26 colorectal cancer cells
Test: Tumor growth in BALB/c mice grafted with syngenic CT26 colorectal cancer cells
Format: in vivo
Conditions: day 33; drinking water: compound 20 1.5 mg/ml (150 mg/kg daily), cimetidine or N-acetyl cysteine 0.75 mg/ml (75 mg/kg daily); vs vehicle
Experimental: The effect of a complex of the invention and the effect of the components of the complex is tested on tumor growth in BALB/c mice grafted with syngenic CT26 colorectal cancer cells. The aim of the study is to compare the effect on tumor growth of the complex of the invention versus the effect of the two components of the complex individually. […] Compound 20, cimetidine and […] dissolved in drinking water. […] The solutions are available ad libitum in the entire study period. […] The doses of cimetidine and N-acetylcysteine are selected to correspond to the doses of each individual compound obtained by administration of […] of compound 20. In these studies, female BALB/c mice with an age of 6 weeks are used. Ten mice are included per group. The mice are caged in standard cages at a temperature of 21° C.-23° C. controlled via the ambient ventilation system in the laboratory. Light cycle is 12-hour dark and 12-hour light (lights on 06.00). Diet is Altromin 1314 special formulation, Produced by Altromin Denmark, Chr. Pedersen A/S, 4100 Ringsted, Denmark. Water is acidified with citric acid. Diet and water is administered ad libitum. The mice are randomised to test groups of ten mice. After one week of acclimatisation each mouse is injected subcutaneously with appr. […] Tumor diameters are measured in two dimensions using a digital slide gauge.

| Compound | tumor growth inhibited [%] |
| --- | --- |
| CC(=O)N[C@@H](CS)C(=O)O [N-acetyl cysteine] | 19 |
| CN/C(=N/CCSCc1nc[nH]c1C)NC#N [cimetidine] | 8 |
